Tested on: 931267-113-T-J1-PDC multicell spheroid viability
Assay: Anticancer human tumor 931267-113-T-J1-PDC patient-derived colon adenocarcinoma cell line growth inhibition [PI3K]
Settings: for IC50: curve of first compound; for viability, T/C: stronger effect = lower value
Source text: Combinatorial screen of targeted agents with the PI3K inhibitors inavolisib, alpelisib, duvelisib, and copanlisib in multi-cell type tumor spheroids
A high-throughput screen of multi-cell type tumor spheroids was designed to identify active combinations of targeted small molecules and PI3K pathway inhibitors. Complex spheroids include a stromal component modeled by human endothelial cells (HUVEC) and fibroblasts modeled by human mesenchymal stem cells (MSCs). The concentration ranges selected for each drug and investigational agent were based upon clinically achievable concentrations if the clinical Cmax of the agent was known.
Compounds. The drugs and investigational agents: inavolisib (NSC800729), alpelisib (NSC765974), duvelisib (NSC772469), copanlisib (NSC816437), ipatasertib (NSC767898), afuresertib (NSC778305), talazoparib (NSC767125), sapanisertib (NSC764658), selumetinib (NSC741078), tovorafenib (DAY101, NSC766906), vemurafenib (NSC761431), ravoxertinib (NSC781343), sotorasib (NSC818433), MRTX1133 (NSC 836407), abemaciclib (NSC 768073), palbociclib (NSC758247), venetoclax (NSC 766270), SY5609 (NSC837396), enzalutamide (NSC755605), and darolutamide (NSC825331), were obtained from the National Cancer Institute (NCI) Developmental Therapeutics Program Chemical Repository. The FDA-approved anticancer drug set is available from the NCI Developmental Therapeutics Program. […] The stock solutions were prepared in dimethyl sulfoxide (DMSO, Sigma-Aldrich, St. Louis, MO, cat. D2650) at 800-fold the tested concentration and stored at -70 degrees C prior to their use. All drugs and investigational agents were tested over a range starting from a high concentration at or near the clinical Cmax and decreasing in half-log increments. If the clinical Cmax for an agent had not been determined, the highest concentration tested was 10 microM.
Cell Culture. All cells were maintained in an incubator at 37 degrees C and 5% CO2 with 95% humidity. The PDC lines were cultured according to standard operating procedures established by the NCI PDMR (https://pdmr.cancer.gov/sops/default.htm). All PDCs were thawed and cultured in Matrigel-coated flasks prepared with a working solution of 1X Ham's F-12 nutrient mix, without supplementation (Invitrogen, Waltham, MA, cat. 11765054), 100 U/mL penicillin-streptomycin (Invitrogen, cat. 15140122), and 2.5% Matrigel (Corning Inc., Corning, NY, cat. 354248) for the first three passages. The 354836-022-R-J1-PDC, 475296-252-R-J1-PDC, and 997726-040-R-J2-PDC lines were cultured in 6A media, which includes advanced DMEM/F-12 (Thermo Fisher Scientific, cat. 12634028), 10 mM HEPES (Thermo Fisher Scientific, cat. 15630080), 1X GlutaMAX supplement (Thermo Fisher Scientific, cat. 35050061), 0.1 mg/mL primocin (InvivoGen, San Diego, CA, cat. ant-pm-2), 10% defined fetal bovine serum, heat inactivated (HyClone Laboratories Inc., Logan, UT, cat. SH30070.03HI), 50% L-WRN conditioned media (ATCC, cat. CRL-3276), 1.25 mM N-Acetyl-L-cysteine (Sigma-Aldrich, cat. A9165), 10 mM nicotinamide (Sigma-Aldrich, cat. N0636), 1X B-27 supplement (Thermo Fisher Scientific, cat. 17504044), 1X N-2 supplement (Thermo Fisher Scientific, cat. 17502048), and 10 microM Y-27632 dihydrochloride (Tocris Bioscience, Bristol, United Kingdom, cat. 1254). The 624824-186-R-J2-PDC line was cultured in 6C/Colon 1B media, which includes all 6A media components plus 50 ng/mL human EGF recombinant protein (Thermo Fisher Scientific, cat. PHG0311). […]

[1] = second compound 0.00316 µM, first compound 0.0316 µM
[2] = second compound 0.00316 µM, first compound 0.1 µM
[3] = second compound 0.01 µM, first compound 0.0316 µM
[4] = second compound 0.01 µM, first compound 0.1 µM
[5] = second compound 0.0316 µM, first compound 0.0316 µM
[6] = second compound 0.0316 µM, first compound 0.1 µM
[7] = second compound 0.1 µM, first compound 0.0316 µM
[8] = second compound 0.1 µM, first compound 0.1 µM
[9] = second compound 0.316 µM, first compound 0.0316 µM
[10] = second compound 0.316 µM, first compound 0.1 µM
[11] = second compound 1 µM, first compound 0.0316 µM
[12] = second compound 1 µM, first compound 0.1 µM
[13] = second compound 0.00316 µM, first compound 0.316 µM
[14] = second compound 0.00316 µM, first compound 1 µM
[15] = second compound 0.00316 µM, first compound 3.16 µM
[16] = second compound 0.00316 µM, first compound 10 µM
[17] = second compound 0.01 µM, first compound 0.316 µM
[18] = second compound 0.01 µM, first compound 1 µM
[19] = second compound 0.01 µM, first compound 3.16 µM
[20] = second compound 0.01 µM, first compound 10 µM
[21] = second compound 0.0316 µM, first compound 0.316 µM
[22] = second compound 0.0316 µM, first compound 1 µM
[23] = second compound 0.0316 µM, first compound 3.16 µM
[24] = second compound 0.0316 µM, first compound 10 µM
[25] = second compound 0.1 µM, first compound 0.316 µM
[26] = second compound 0.1 µM, first compound 1 µM
[27] = second compound 0.1 µM, first compound 3.16 µM
[28] = second compound 0.1 µM, first compound 10 µM
[29] = second compound 0.316 µM, first compound 0.316 µM
[30] = second compound 0.316 µM, first compound 1 µM
[31] = second compound 0.316 µM, first compound 3.16 µM
[32] = second compound 0.316 µM, first compound 10 µM
[33] = second compound 1 µM, first compound 0.316 µM
[34] = second compound 1 µM, first compound 1 µM
[35] = second compound 1 µM, first compound 3.16 µM
[36] = second compound 1 µM, first compound 10 µM
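Further: viability read 7 days after compound addition.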

SMILES: CC(=O)c1c(C)c2cnc(Nc3ccc(N4CCNCC4)cn3)nc2n(C2CCCC2)c1=O + CC(Nc1ccc2c(c1)OCCn1cc(N3C(=O)OCC3C(F)F)nc1-2)C(N)=O
- IC50 (second compound 0.00316 µM): > 0.1 µM
- IC50 (second compound 0.01 µM): > 0.1 µM
- IC50 (second compound 0.0316 µM): > 0.1 µM
- IC50 (second compound 0.1 µM): > 0.1 µM
- IC50 (second compound 0.316 µM): > 0.1 µM
- IC50 (second compound 1 µM): > 0.1 µM
- viability, T/C (second compound 0.00316 µM, first compound 0.000316 µM): 104%
- viability, T/C (second compound 0.00316 µM, first compound 0.001 µM): 110%
- viability, T/C (second compound 0.00316 µM, first compound 0.00316 µM): 95.1%
- viability, T/C (second compound 0.00316 µM, first compound 0.01 µM): 111%
- viability, T/C [1]: 105%
- viability, T/C [2]: 99.8%
- viability, T/C (second compound 0.01 µM, first compound 0.000316 µM): 111%
- viability, T/C (second compound 0.01 µM, first compound 0.001 µM): 101%
- viability, T/C (second compound 0.01 µM, first compound 0.00316 µM): 98.7%
- viability, T/C (second compound 0.01 µM, first compound 0.01 µM): 93.3%
- viability, T/C [3]: 108%
- viability, T/C [4]: 105%
- viability, T/C (second compound 0.0316 µM, first compound 0.000316 µM): 108%
- viability, T/C (second compound 0.0316 µM, first compound 0.001 µM): 93.5%
- viability, T/C (second compound 0.0316 µM, first compound 0.00316 µM): 91.9%
- viability, T/C (second compound 0.0316 µM, first compound 0.01 µM): 106%
- viability, T/C [5]: 110%
- viability, T/C [6]: 95.4%
- viability, T/C (second compound 0.1 µM, first compound 0.000316 µM): 100%
- viability, T/C (second compound 0.1 µM, first compound 0.001 µM): 97.7%
- viability, T/C (second compound 0.1 µM, first compound 0.00316 µM): 92.7%
- viability, T/C (second compound 0.1 µM, first compound 0.01 µM): 87.1%
- viability, T/C [7]: 105%
- viability, T/C [8]: 87.8%
- viability, T/C (second compound 0.316 µM, first compound 0.000316 µM): 92.1%
- viability, T/C (second compound 0.316 µM, first compound 0.001 µM): 88.1%
- viability, T/C (second compound 0.316 µM, first compound 0.00316 µM): 81%
- viability, T/C (second compound 0.316 µM, first compound 0.01 µM): 85.7%
- viability, T/C [9]: 91.6%
- viability, T/C [10]: 82.2%
- viability, T/C (second compound 1 µM, first compound 0.000316 µM): 75.9%
- viability, T/C (second compound 1 µM, first compound 0.001 µM): 74%
- viability, T/C (second compound 1 µM, first compound 0.00316 µM): 77.8%
- viability, T/C (second compound 1 µM, first compound 0.01 µM): 70.5%
- viability, T/C [11]: 80.1%
- viability, T/C [12]: 66.3%

SMILES: CCCS(=O)(=O)Nc1ccc(F)c(C(=O)c2c[nH]c3ncc(-c4ccc(Cl)cc4)cc23)c1F + CC(Nc1ccc2c(c1)OCCn1cc(N3C(=O)OCC3C(F)F)nc1-2)C(N)=O
- IC50 (second compound 0.00316 µM): 6.11 µM
- IC50 (second compound 0.01 µM): 6.34 µM
- IC50 (second compound 0.0316 µM): 6.06 µM
- IC50 (second compound 0.1 µM): 5.73 µM
- IC50 (second compound 0.316 µM): 4.89 µM
- IC50 (second compound 1 µM): 4.58 µM
- viability, T/C [1]: 95.6%
- viability, T/C [2]: 105%
- viability, T/C [13]: 125%
- viability, T/C [14]: 117%
- viability, T/C [15]: 120%
- viability, T/C [16]: 2.95%
- viability, T/C [3]: 113%
- viability, T/C [4]: 118%
- viability, T/C [17]: 121%
- viability, T/C [18]: 125%
- viability, T/C [19]: 132%
- viability, T/C [20]: 3.03%
- viability, T/C [5]: 105%
- viability, T/C [6]: 103%
- viability, T/C [21]: 110%
- viability, T/C [22]: 119%
- viability, T/C [23]: 114%
- viability, T/C [24]: 3.59%
- viability, T/C [7]: 91.9%
- viability, T/C [8]: 81.2%
- viability, T/C [25]: 102%
- viability, T/C [26]: 107%
- viability, T/C [27]: 111%
- viability, T/C [28]: 4.35%
- viability, T/C [9]: 82.3%
- viability, T/C [10]: 86.5%
- viability, T/C [29]: 87.9%
- viability, T/C [30]: 99.2%
- viability, T/C [31]: 78.9%
- viability, T/C [32]: 2.7%
- viability, T/C [11]: 75.5%
- viability, T/C [12]: 75.4%
- viability, T/C [33]: 76.3%
- viability, T/C [34]: 61.3%
- viability, T/C [35]: 74.7%
- viability, T/C [36]: 2.07%

SMILES: CNC(=O)c1ccc(N2C(=S)N(c3ccc(C#N)c(C(F)(F)F)c3)C(=O)C2(C)C)cc1F + CC(Nc1ccc2c(c1)OCCn1cc(N3C(=O)OCC3C(F)F)nc1-2)C(N)=O
- IC50 (second compound 0.00316 µM): > 10 µM
- IC50 (second compound 0.01 µM): > 10 µM
- IC50 (second compound 0.0316 µM): > 10 µM
- IC50 (second compound 0.1 µM): > 10 µM
- IC50 (second compound 0.316 µM): > 10 µM
- IC50 (second compound 1 µM): > 10 µM
- viability, T/C [1]: 99%
- viability, T/C [2]: 102%
- viability, T/C [13]: 85.9%
- viability, T/C [14]: 111%
- viability, T/C [15]: 119%
- viability, T/C [16]: 106%
- viability, T/C [3]: 107%
- viability, T/C [4]: 93.2%
- viability, T/C [17]: 107%
- viability, T/C [18]: 106%
- viability, T/C [19]: 99.8%
- viability, T/C [20]: 109%
- viability, T/C [5]: 97.2%
- viability, T/C [6]: 90.2%
- viability, T/C [21]: 96.4%
- viability, T/C [22]: 90.1%
- viability, T/C [23]: 95.1%
- viability, T/C [24]: 87.6%
- viability, T/C [7]: 98.4%
- viability, T/C [8]: 88.5%
- viability, T/C [25]: 92.2%
- viability, T/C [26]: 81.9%
- viability, T/C [27]: 91.9%
- viability, T/C [28]: 77.6%
- viability, T/C [9]: 82%
- viability, T/C [10]: 78.9%
- viability, T/C [29]: 77%
- viability, T/C [30]: 76.1%
- viability, T/C [31]: 79.8%
- viability, T/C [32]: 70%
- viability, T/C [11]: 76.3%
- viability, T/C [12]: 67.9%
- viability, T/C [33]: 75.5%
- viability, T/C [34]: 70%
- viability, T/C [35]: 71.2%
- viability, T/C [36]: 54.7%

— PubChem BioAssay AID1963970 (Molecular Pharmacology Branch, DTP, NCI, 2024)
